Columns and labels:
[1] = test system: Staphylococcus aureus (ATCC 29213); assay: Glucose consumption susceptibility test, blood culture diluted in MHB with glucose (Example 1); format: cell-based; parameters: glucose concentration, t = 0 / glucose concentration, t = 60 / glucose concentration, t = 120 / glucose concentration, t = 180 / glucose concentration, t = 240 / dC/dT (rate of change in glucose concentration): unit not given here; details: for F = the rate of change in glucose concentration in relation to the reference / dC/dT (rate of change in glucose concentration) / glucose concentration, t = 0 / glucose concentration, t = 60 / glucose concentration, t = 120 / glucose concentration, t = 180 / glucose concentration, t = 240: S. aureus; for glucose concentration, t = 0: 0 minutes; for glucose concentration, t = 60: 60 minutes; for glucose concentration, t = 120: 120 minutes; for glucose concentration, t = 180: 180 minutes; for glucose concentration, t = 240: 240 minutes
Procedure, shortened: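 Glucose was measured by glucometer at 0, 60, 120, 180 and 240 min after 1:100 dilution of positive blood culture in cation-adjusted MHB containing 1.0 mg/mL glucose.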

E. coli 17 = assay: Qualitative glucose consumption test, bacteria from plated cultures (Example 2, Table 6); format: cell-based; details: E. coli 17 from plated culture, antibiotic 256 μg/mL
Method: (§1) If the susceptibility score is a qualitative susceptibility score classifying the microorganism as “susceptible”, or “non-susceptible” to an antibiotic agent the answer could be given in as little as 1 hour. Bacteria from plated cultures were suspended in cation adjusted Mueller-Hinton broth (SVA, Uppsala, Sweden) supplemented with glucose. Consequently, the concentration of microorgansims was typically two orders of magnitude higher as compared to Example 1. […] The tested microorganisms was one strain of E. faecium, two strains of E. coli and one S. aureus.

E. faecium [2] = assay: as above; format: cell-based; details: E. faecium from plated culture, antibiotic 256 μg/mL
Method: as §1

S. aureus = assay: as above; format: cell-based; details: S. aureus from plated culture, antibiotic 256 μg/mL
Method: If the susceptibility score is a qualitative susceptibility score classifying the microorganism as “susceptible”, or “non-susceptible” to an antibiotic agent the answer could be given in as little as 1 hour.
Bacteria from plated cultures were suspended in cation adjusted Mueller-Hinton broth (SVA, Uppsala, Sweden) supplemented with glucose. Consequently, the concentration of microorgansims was typically two orders of magnitude higher as compared to Example 1. […] The tested microorganisms was one strain of E. faecium, two strains of E. coli and one S. aureus.

E. faecium [3] = assay: Qualitative glucose consumption test, directly from positive BC-bottles (Example 2, Table 7); format: cell-based; details: E. faecium from positive BC-bottle, antibiotic 256 μg/mL
Method: With slightly lower microbe concentrations e.g. directly from positive BC-bottles (^˜10^9 CFU/ml) the results are shown at least within 2 hours, where E. coli ATCC 25922 is classified as susceptible and E. faecium is non-susceptible.

E. coli ATCC 25922 = assay: as above; format: cell-based; details: E. coli ATCC 25922 from positive BC-bottle, antibiotic 256 μg/mL
[4] = test system: Escherichia coli ATCC 25922; details: E.coli, cited from earlier work
[5] = test system: Enterococcus faecalis ATCC 29212; details: E.faecalis, cited from earlier work
[6] = test system: Staphylococcus aureus ATCC 29213; details: S.aureus, cited from earlier work
[7] = range obtained by EUCAST from ISO 20776-1: 2006
[8] = reference value, Mueller-Hinton agar, incubation 18±2 h, N/A = not susceptible

## gentamicin
[1]; antibiotic 0.25 μg/mL
  F = the rate of change in glucose concentration in relation to the reference: 66%
  dC/dT (rate of change in glucose concentration): 22
  glucose concentration, t = 0: 143
  glucose concentration, t = 60: 146
  glucose concentration, t = 120: 140
  glucose concentration, t = 180: 102
  glucose concentration, t = 240: 55
[1]; antibiotic 0.5 μg/mL
  F = the rate of change in glucose concentration in relation to the reference: 57%
  dC/dT (rate of change in glucose concentration): 19
  glucose concentration, t = 0: 143
  glucose concentration, t = 60: 154
  glucose concentration, t = 120: 137
  glucose concentration, t = 180: 116
  glucose concentration, t = 240: 78
[1]; antibiotic 1 μg/mL
  F = the rate of change in glucose concentration in relation to the reference: 30%
  dC/dT (rate of change in glucose concentration): 10
  glucose concentration, t = 0: 137
  glucose concentration, t = 60: 154
  glucose concentration, t = 120: 146
  glucose concentration, t = 180: 134
  glucose concentration, t = 240: 119
[1]; antibiotic 2 μg/mL
  F = the rate of change in glucose concentration in relation to the reference: 12%
  dC/dT (rate of change in glucose concentration): 4
  glucose concentration, t = 0: 144
  glucose concentration, t = 60: 154
  glucose concentration, t = 180: 146
  glucose concentration, t = 240: 148
[1]; antibiotic 4 μg/mL
  F = the rate of change in glucose concentration in relation to the reference: 10%
  dC/dT (rate of change in glucose concentration): 4
  glucose concentration, t = 60: 157
  glucose concentration, t = 120: 147
  glucose concentration, t = 180: 150
  glucose concentration, t = 240: 149
[1]; antibiotic 8 μg/mL
  F = the rate of change in glucose concentration in relation to the reference: 0%
  dC/dT (rate of change in glucose concentration): 0
  glucose concentration, t = 0: 142
  glucose concentration, t = 60: 154
  glucose concentration, t = 120: 150
  glucose concentration, t = 180: 154
  glucose concentration, t = 240: 140
[1]; antibiotic 16 μg/mL
  F = the rate of change in glucose concentration in relation to the reference: 0%
  dC/dT (rate of change in glucose concentration): 0
  glucose concentration, t = 0: 139
  glucose concentration, t = 60: 145
  glucose concentration, t = 120: 150
  glucose concentration, t = 180: 145
  glucose concentration, t = 240: 145
[1]; antibiotic 32 μg/mL
  F = the rate of change in glucose concentration in relation to the reference: 3%
  dC/dT (rate of change in glucose concentration): 1
  glucose concentration, t = 0: 144
  glucose concentration, t = 60: 148
  glucose concentration, t = 120: 145
  glucose concentration, t = 180: 146
  glucose concentration, t = 240: 145
[1]; S.aureus, 80% threshold of reference rate of change, 60 to 180 minutes
  MIC, Measured: 0.25 mg/L
E. coli 17
  qualitative susceptibility score: susceptible
E. coli 17; t = 15
  glucose concentration, t = 15: 131
E. coli 17; t = 30
  glucose concentration, t = 30: 126
E. coli 17; t = 45
  glucose concentration, t = 45: 123
E. faecium [2]
  qualitative susceptibility score: non-susceptible
E. faecium [2]; t = 0
  glucose concentration, t = 0: 79
E. faecium [2]; t = 15
  glucose concentration, t = 15: 47
S. aureus
  qualitative susceptibility score: susceptible
S. aureus; t = 15
  glucose concentration, t = 15: 137
S. aureus; t = 30
  glucose concentration, t = 30: 139
S. aureus; t = 45
  glucose concentration, t = 45: 131
E. faecium [3]; t = 0
  glucose concentration, t = 0: 144
E. faecium [3]; t = 45
  glucose concentration, t = 45: 105
E. faecium [3]; t = 60
  glucose concentration, t = 60: 77
E. faecium [3]; t = 75
  glucose concentration, t = 75: 47
E. faecium [3]; within 2 hours
  qualitative susceptibility score: non-susceptible
E. coli ATCC 25922; t = 0
  glucose concentration, t = 0: 145
E. coli ATCC 25922; t = 45
  glucose concentration, t = 45: 155
E. coli ATCC 25922; t = 60
  glucose concentration, t = 60: 151
E. coli ATCC 25922; t = 90
  glucose concentration, t = 90: 140
E. coli ATCC 25922; t = 105
  glucose concentration, t = 105: 135
E. coli ATCC 25922; within 2 hours
  qualitative susceptibility score: susceptible
[4]; [7]
  MIC, EUCAST, range in parentheses: (0.25-1) ug/mL
[4]; [8]
  MIC, EUCAST: 0.5 mg/L
[5]; [7]
  MIC, EUCAST, range in parentheses: (4-16) ug/mL
[5]; [8]
  MIC, EUCAST: 8 mg/L
[6]; [7]
  MIC, EUCAST, range in parentheses: (0.125-1) ug/mL
[6]; reference value, Mueller-Hinton agar, incubation 18±2 h
  MIC, EUCAST: 0.25 to 0.5 mg/L
